Source: patent US4684748A, “Anticonvulsant agents” (Eli Lilly and Company, priority 1985, dated 1987)
Where a name gives a salt, the structure may show the parent alone.

Tested on: tonic extensor seizures elicited by maximal electroshock
Assay: electroshock induced convulsion inhibition assay (E.S.)
Type: in vivo, Cox standard strain albino male mice
Conditions: Mus musculus; oral dose (gavage), mice, 0.1 second 50 milliampere corneal electroshock; at the time after dosing providing an optimal response
Description: The compounds of Formula I are anticonvulsant agents with a high therpeutic ratio and long half-life and are therefore useful in the treatment and prevention of convulsions in mammals. […] The compounds are effective against tonic extensor seizures elicited by maximal electroshock and should therefore be useful for treating generalized tonic-clonic ("grand mal"), cortical focal, complex partial (temporal lobe epilepsy), simple partial (focal moor), and post-traumatic seizures in humans. […] In the electroshock induced convulsion inhibition assay (E.S.), the compound to be tested was suspended in acacia and administered by gavage to each of ten Cox standard strain albino male mice (18-24 g) at the dose level being investigated. […] The animals were examined and evaluated immediately after the electroshock for the occurrence of clonic, flexor tonic, or extensor tonic convulsions, or death and the ED50 was determined for each compound as the dose which inhibited the occurrence of extensor tonic convulsions in one half of the animals immediately after the electroshock. For comparison, 18 milliamperes was usually sufficient to produce extensor tonic convulsions in about half of the control animals; at 50 milliamperes, almost all control animals (receiving vehicle only) […]. The test results summarized in Table I are reported as the ED50 values at the time interval found to provide an optimal response after dosing.
With `Cc1cc(C(=O)NC(C)c2ccccc2)ccc1N` (racemic) [Example 12, (R,S)-4-amino-3-methyl-N-(1-phenylethyl)benzamide hydrochloride] the ED50 was 20 mg/kg.
Work on `Cc1cc(C(=O)NC(C)c2ccccc2)cc(C)c1N` (racemic) [Example 22, (R,S)-4-amino-3,5-dimethyl-N-(1-phenylethyl)benzamide] yielded an ED50 of 26.7 mg/kg.
Work on `Cc1ccccc1CNC(=O)c1cc(C)c(N)c(C)c1` [Example 13, 4-Amino-3,5-dimethyl-N-[(2-methylphenyl)methyl]benzamide] yielded an ED50 of 20 mg/kg.
For `Cc1cc(C(=O)Nc2c(C)cccc2C)ccc1N` [Example 14, 4-Amino-N-(2,6-dimethylphenyl)-3-methylbenzamide], the ED50 was 3.8 mg/kg.
`Cc1cc(C(=O)Nc2c(C)cccc2C)cc(C)c1N` [Example 15, 4-Amino-N-(2,6-dimethylphenyl)-3,5-dimethylbenzamide] showed an ED50 of 5.6 mg/kg.
`Cc1cc(C(=O)Nc2ccccc2C)ccc1N` [Example 16, 4-Amino-3-methyl-N-(2-methylphenyl)benzamide] gave an ED50 of 5.4 mg/kg.
`Cc1cc(C(=O)NCc2ccccc2)cc(C)c1N` [Example 17, 4-Amino-3,5-dimethyl-N-benzylbenzamide] gave an ED50 of 75 mg/kg.
`Cc1cc(C(=O)NCc2ccccc2C)ccc1N` [Example 18, 4-Amino-3-methyl-N-(2-methylbenzyl)benzamide] gave an ED50 of 16.3 mg/kg.
`Cc1cc(C(=O)NCc2ccccc2)ccc1N.Cl` [Example 19, 4-Amino-3-methyl-N-benzylbenzamide hydrochloride] showed an ED50 of 9.6 mg/kg.
For `Cc1cc(C(=O)N[C@H](C)c2ccccc2)cc(C)c1N` [Example 20, (R)-4-amino-3,5-dimethyl-N-(1-phenylethyl)benzamide], the ED50 was 46.8 mg/kg.
With `Cc1cc(C(=O)N[C@@H](C)c2ccccc2)cc(C)c1N` [Example 21, (S)-4-amino-3,5-dimethyl-N-(1-phenylethyl)benzamide] the ED50 was 60.5 mg/kg.

Tested on: seizures
Assay: not given
Conditions: man; cited from earlier work
In the case of `O=C1NC(=O)C(c2ccccc2)(c2ccccc2)N1` [phenytoin], the “plasma level at which seizures are controlled” value is given as 10 µg/mL.
